Results published in patent publication US8148392B2, “2-indolyl imidazo [4,5-d] phenanthroline derivatives and their use in the treatment of cancer” (Lorus Therapeutics Inc., priority 2005, dated 2012).
“Also recorded” adds a separate entry of the source. Where two headings read alike, the source gives them in different places. Values belong to the molecule of their own block, whether it stands above or below them.

Assays:
[1] = system: human colon carcinoma HT-29 cells; assay: XTT cell proliferation assay, HT-29; assay type: cell-based; details: Homo sapiens, HT-29, XTT, read-out: IC50
Description: The ability of compounds of Formula I to inhibit the proliferation of human colon carcinoma HT-29 cells was tested as follows. HT-29 colon carcinoma cells used in this example and subsequent examples were maintained as a monolayer in a growth medium; McCoy's 5A modified medium (Sigma, St. Louis, Mo.), supplemented with 2 mM L-glutamine (Gibco, Grand Island, N.Y.), 10% fetal bovine serum (FBS) (Multicell, WISENT Inc. St-Bruno, QC), antibiotic-antimycotic (Multicell), at 37° C. in a 5% CO2-humidified incubator. Cells were transferred onto 150 mm tissue culture plates and grown until sub-confluency (70-80%) prior to their use. The in vitro antiproliferative activity of compounds was evaluated by incubating the cells with varying concentrations of the compounds as shown in Table 1 for 6-7 days. The efficacy of these compounds in this cell proliferation assay was measured based in the ability of live cells to reduce the tetrazolium salt XTT to orange colored compounds of formazan (XTT cell proliferation kit II, Roche Applied Science, Montreal, QC).
The ability of compounds of Formula I to inhibit the proliferation of human colon carcinoma HT-29 cells was tested as described above in Example 13.
Cell growth inhibition IC50 (μM) by compounds of Formula I was tested on various cancer cell types by XTT cell proliferation assay. The growth inhibitory effects of the compounds of Formula I as shown below for the melanoma cell line SK-MEL-2 were reproducible by Lorus Therapeutics Inc.

HT-29 cells = assay: Effect of exogenous metals on growth inhibition of HT-29 cells (XTT); assay type: cell-based, human; details: HT-29, 5 days
Description: To determine whether metal chelation is involved in the growth inhibitory activity of compounds of Formula I, exogenous metals (ZnCl2, FeCl2.4H2O, FeCl3.4H2O, MgCl2, at 100 μM) were incubated with HT-29 cells, simultaneously with control vehicle DMSO, compound 3 (5 μM), or compound 13 (25 μM), for 5 days. […] Growth inhibition by compound 13 is predicted to occur through a different mechanism than compound 3.
To determine whether chelation of copper is involved in the growth inhibitory activity of compounds of Formula I, HT-29 cells were incubated with up to 5 μM of compound 3, in the presence or absence of 25 μM CuSO4.5H20 for 5 days.
To determine whether metal chelation is involved in the growth inhibitory activity of compound 3, various concentrations of exogenous metals were incubated with HT-29 cells, simultaneously with various concentrations of compound 3, for 5 days. The exogenous metals tested were: ZnCl2 (zinc), CuSO4.5H20 (copper), FeCl2 (iron II), FeCl3.4H20 (iron III), MgCl2 (magnesium), and CaCl2.2H20 (calcium). HT-29 cells (4×10^3/well) in 100 μL volume of the growth medium were seeded in 96-well cell culture plates and incubated overnight at 37° C. The medium was removed and replaced with a total volume of 100 μl growth medium containing concentrations of metal ions as shown in FIG. 5 with compound 3 or 0.1% DMSO vehicle control. After incubation of the cells at 37° C. for 5 days, cell viability was quantitated using the XTT (sodium 3′-[1-(phenylamino-carbonyl)-3,4-tetrazolium}-bis (4-methoxy-6-nitro) benzene sulfonic acid hydrate) calorimetric assay (Roche Applied Science, Penzberg, Germany). XTT labeling reagent (1 mg/mL) was mixed with electron-coupling reagent, following the manufacturer's instructions, and 50 μl of the mixture was added directly to the cells cultured in 100 μl growth medium. The plates were further incubated at 37° C. for 4 hours and the absorbance of each well was measured by a multi-well spectrophotometer (Bio-Tek Instruments Inc.) at 460 nm. The data were adjusted relative to the blank, and were expressed as % of cell growth compared to the DMSO control.
To determine the ability of compounds 5 and 7 to chelate metals in cells, exogenous metals were added to HT-29 cells, simultaneously with various concentrations of compounds 5 and 7. Briefly, HT-29 cells were treated with various concentrations compounds 5 and 7, plus or minus copper (25 μM CuSO4.5H20) or zinc (100 μM of ZnCl2), for 5 days. Cell viability was determined by XTT assay. The effects of copper and zinc on growth inhibition of HT-29 cells are shown in FIG. 6A for compound 5 and in FIG. 6B for compound 7.
Effect of metal ion supplements on compound 3-mediated cell growth inhibition of HT-29 cells was examined by XTT cell proliferation assay.

[2] = system: human lung NCI-H460 cells; assay: Large-cell lung carcinoma NCI-H460 xenograft model, tumour growth; assay type: in vivo, CD-1 female nude mice; details: Lutrol (i.p.), lipid-based (i.v.) or water-based (i.p.) formulations
Description: The ability of compounds of Formula I to inhibit large-cell lung tumour growth in vivo was tested by determining the efficacy of compound 3 in a xenograft model as described below. Compound 3 was tested as a lipid-based formulation having the following composition: distearoylphosphatidylethanolamine-polyethylene glycol 2000 (DSPE-PEG/5% mole) and egg phosphatidylcoline (ePC/95% mole). The formulation was prepared as follows: Stock solutions of compound 3 and lipid (ePC and DSPE-PEG) were prepared in DMF. Specific volumes of the stock solutions of compound 3 and lipid were then mixed in order to achieve a final lipid concentration of 25 mg/mL (ePC:DSPE-PEG=95:5 (mol %) and a compound 3 to total lipid ratio of 1:10 (w/w). The mixture was stirred for four hours, thoroughly dried under nitrogen and left overnight under vacuum. HEPES buffer saline (HBS 0.01 M, pH=7.4) warmed to 60° C. was then added in order to rehydrate the dried film. The solutions were vortexed, stirred for 48 hours at room temperature and sonicated for two and half hours. The formulation was then centrifuged at 1000 rpm for 5 minutes to remove any free compound 3.
CD-1 female nude mice (6-7 weeks, 7 mice per treatment group) were injected […] with human lung NCI-H460 cells (3×10^6 cells in 0.1 ml PBS) subcutaneously. Treatment of the mice with vehicle or compound 3 was initiated 5 days post-inoculation (size of tumours=20-40 mm^3) for 7-day cycles of five days followed by a 2 day break for the duration of the experiment (35 days). Mice were treated with 80 mg/kg/d for the first week followed by 40 mg/kg/d until the end of the experiment. The size of the tumours was measured over the course of the experiment using calipers, and the weight of the tumours was measured after the animals were sacrificed.
The ability of compounds 3, 5, and 7 to inhibit large-cell lung carcinoma cell growth in vivo was tested in the mouse xenograft model as described in Example 27. The compounds were tested as Lutrol formulations (administered i.p.), lipid-based formulations micelles (administered i.v.), or water-based formulations (administered i.p.). The vehicle controls included Lutrol control (administered i.p.), lipid micelle control (administered i.v.), and water control (administered i.p.). Lutrol formulations contained 15% Lutrol and 10% DMSO. The composition of the lipid-based formulations and preparation of same was as described in Example 27 above.

[3] = assay type: in vivo; details: i.p. twice per day for 1 week
Description: To test the sub-acute toxicity of the compounds of Formula I, female mice were injected with the compounds and toxicity was evaluated based on mortality, changes in behaviour, appearance and weight. Briefly, ICR normal female mice (5-6 weeks old; n=33) weighing about 0.020 kg in body weight, were injected with various compounds at 100 mg/kg and 50 mg/kg or with the vehicle alone (Lutrol (M68, micronized)). Groups of 3 ICR female mice were injected with one intra-peritoneal (i.p.) injection of 250 μl of each compound at 4.0 mg/ml twice per day (100 mg/kg) for 1 week (Group I); or with one intra-peritoneal (i.p.) injection of 250 μl of each compound at 2.0 mg/ml twice per day (50 mg/kg) for 1 week (Group II), or with one intra-peritoneal (i.p.) injection of 250 μl of lutrol vehicle control twice per day for 1 week (Control Group).
The compounds to be tested were prepared to provide enough for one week at concentrations of 4.0 mg/ml and 2.0 mg/ml. Briefly, 50 mg of each compound was dissolved in 1.25 ml of 100% DMSO and diluted with 6.25 ml of Lutrol (30% in water) and 5 ml water, to prepare a solution of 4 mg/ml compound in 15% Lutrol in water. Next, 4 ml of each prepared solution was further diluted with 4 ml of 15% Lutrol in water to provide the 2.0 mg/ml solution of each compound. For the vehicle control solution, 8 ml of 15% Lutrol in water was prepared. Compounds at concentrations of 4.0 mg/ml and 2.0 mg/ml and the vehicle control were administered as described above.

supercoiled plasmid DNA = assay: In vitro DNA cleavage assay; assay type: biochemical; details: 25 μM compound, 10 μM CuSO4, 100 μM ascorbic acid, 37° C., 30 minutes
Description: Compound 3 was tested for its ability to cleave plasmid DNA in vitro in the presence of copper and the reducing agent ascorbic acid. Experiments were performed in a total of 20 μl, containing 10 mM NaH2PO4/Na2HPO4 buffer (pH 6.7), 1 μg of supercoiled plasmid DNA, 100 μM ascorbic acid, 25 μM drug compound (or vehicle), and 10 μM of CuSO4.5H20. The reaction mixture was incubated at 37° C. for 30 minutes, and 1 μl of 0.1 M EDTA was added to terminate the reaction. DNA loading buffer was added, and reactions were run at 80V for 80 minutes on a 1% agarose gel containing ethidium bromide.
To determine whether ions other than copper could suffice, DNA cleavage reactions were also carried out in the presence of zinc or iron. Reactions were performed as above, in the presence of 25 μM of CuSO4.5H20, ZnCl2, or FeCl2.4H20. […] Note that copper alone in the presence of ascorbic acid can shift the ratio of supercoiled DNA to open circular DNA.
To determine the ratios of compound to copper at which compound 3 was effective, reactions were performed as in FIG. 22A. The ratios of compound 3 to copper of 3:1, 2.5:1, 2:1, 1.5:1, and 1:1, as shown in FIG. 23 were achieved by maintaining the concentration of Cu constant at 10 μM, and varying the concentration of compound 3. The ratios of compound 3 to Cu of 1:1.5, 1:2, 1:2.5, and 1:3, were achieved by maintaining the concentration of compound 3 constant at 10 μM, and varying the concentration of copper.
Other compounds of Formula I, compounds 5, 7, 9 and 13 were also tested for their ability to cleave DNA at a ratio of 2.5:1 to copper (FIG. 23). Ratios of compound 3:copper as indicated, plus concentrations of copper in the absence of compound 3 were used in the DNA cleavage assay as described above.

[4] = system: normal cell lines PrEC, HMEC, WI38 and cancer cell lines DU145, MDA-MB-435, HT-29; assay: Cancer cell selectivity, IC90 in normal versus cancer cell lines (XTT); assay type: cell-based, human; details: average IC90 of all normal / average IC90 of all cancer cell lines, 6 to 7 days
From the text: An exemplary method of assessing the differential sensitivity between normal and cancer cells for a compound has been described by Vassilev et al. (Anti-Cancer Drug Design (2001) 16:7). This method involves the comparison of IC90 values, i.e. the molar concentration of a test compound required to cause 90% growth inhibition of exponentially growing cells. Thus, the IC90 values for candidate compounds can be evaluated in various cancer cell lines (such as those outlined above) and normal cells (such as HUVEC and/or WI38 cells) and compared. IC90 values can be measured using a variety of standard techniques as known in the art. Cancer cell selectivity is calculated as a ratio between the average IC90 for all normal cell lines and the average IC90 for all cancer cell lines. Compounds with an IC90 ratio (normal/cancer) of >4 are considered to be selective for cancer cells (L. T. Vassilev et al., Anti-cancer Drug Design, 2001, 16: 7-17).
The normal cells lines used were PrEC (prostate), HMEC (breast), and WI38 (lung fibroblast) cell lines and the cancer cells lines were DU145 (prostate), MDA-MB-435 (breast), HT-29 (colon). IC90 values were also determined for the controls doxorubicin and etoposide. The cells were cultured as generally described in Example 13. Various concentrations of the compounds were incubated with the cells for 6 to 7 days, and the number of proliferating cells was measured using the XTT assay. Cancer cell selectivity was calculated as a ratio between the average IC90 for all normal and the average IC90 for all cancer cell lines.

- IC50 ([1]; 6-7 days, Table 3): 0.35 µM
- IC50 ([1]; as Example 13, Table 7): 0.35 µg/mL
Compound: Cc1[nH]c2ccc(Cl)cc2c1-c1nc2c3cccnc3c3ncccc3c2[nH]1 [Compound 5]
- effect of exogenous copper on growth inhibition (HT-29 cells; 25 μM CuSO4, low concentrations of compound (less than 2 μM)): copper impaired the activity only at low concentrations
- effect of exogenous zinc on growth inhibition (HT-29 cells; ZnCl2 (100 μM)): zinc impaired the growth inhibitory activities
- tumour size and weight [2]: able to decrease the size (FIG. 16A) and weight (FIG. 16B) of tumours

Compound: c1ccc2c(-c3nc4c5cccnc5c5ncccc5c4[nH]3)c(-c3ccncc3)[nH]c2c1 [Compound 11]
- Sub-acute toxicity ([3]; 50 mg/Kg): −
- Sub-acute toxicity ([3]; 100 mg/Kg): +
- IC50 ([1]; 6-7 days, Table 3): > 2.5 µM
- IC50 ([1]; as Example 13, Table 7): > 2.5 µg/mL

Compound: c1ccc2c(-c3nc4c5cccnc5c5ncccc5c4[nH]3)c(CN3CCCCC3)[nH]c2c1 [Compound 12]
- Sub-acute toxicity ([3]; 50 mg/Kg): −
- Sub-acute toxicity ([3]; 100 mg/Kg): +
- cleavage of plasmid DNA (supercoiled plasmid DNA): capable of cleaving DNA
- IC50 ([1]; 6-7 days, Table 3): 0.28 µM
- IC50 ([1]; as Example 13, Table 7): 0.28 µg/mL

Compound: Cc1[nH]c2ccccc2c1-c1nc2c3ccccc3c3ccccc3c2[nH]1 [Compound 13, reference compound]
- cleavage of plasmid DNA (supercoiled plasmid DNA): unable to cleave DNA
- effect of exogenous metals on activity of the negative control (HT-29 cells; compound 13 25 μM): None of the metals had any effect; also recorded: Copper had no effect on growth inhibition

Compound: COc1cccc2c1C(=O)c1c(O)c3c(c(O)c1C2=O)C[C@@](O)(C(=O)CO)C[C@@H]3O[C@H]1C[C@H](N)[C@H](O)[C@H](C)O1 [Doxorubicin, doxorubicin, reference compound]
- Normal/cancer IC90 ratio [4]: 5.6

Compound: COc1cc([C@@H]2c3cc4c(cc3[C@@H](O[C@@H]3O[C@@H]5CO[C@@H](C)O[C@H]5[C@H](O)[C@H]3O)[C@H]3COC(=O)[C@H]23)OCO4)cc(OC)c1O [Etoposide, etoposide, reference compound]
- Normal/cancer IC90 ratio [4]: >5.0
